The record followed here is ChEMBL document CHEMBL1130892, “Novel cytokine release inhibitors. Part I: Triterpenes” (Bioorg Med Chem Lett, 1998).

Test [1] in a line: Inhibitory activity against LPS-stimulated 1L-1beta release by cultured human monocytes. The class given is functional.
Test [2] deals with Rattus norvegicus. As to the kind of experiment: Compound was tested for reduction of streptococcal cell wall(SCW) in rats at a dose of 0.67 mg/kg. The class given is functional.
Test [3] has as its target T1, Caspase-1 (Homo sapiens, UniProt P29466).
T1 sequence (P29466 whole entry): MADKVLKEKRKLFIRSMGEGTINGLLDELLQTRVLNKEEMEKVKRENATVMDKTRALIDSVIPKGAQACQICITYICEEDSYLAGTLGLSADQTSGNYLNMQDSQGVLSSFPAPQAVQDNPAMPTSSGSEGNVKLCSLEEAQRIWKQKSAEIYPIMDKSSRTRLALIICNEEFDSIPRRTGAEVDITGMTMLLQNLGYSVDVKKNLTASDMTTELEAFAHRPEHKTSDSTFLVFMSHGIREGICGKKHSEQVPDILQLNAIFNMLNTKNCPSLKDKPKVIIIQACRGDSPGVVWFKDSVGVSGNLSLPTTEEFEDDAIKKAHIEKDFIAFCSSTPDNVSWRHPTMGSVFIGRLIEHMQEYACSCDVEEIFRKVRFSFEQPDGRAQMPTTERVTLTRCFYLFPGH
As to the kind of experiment: Inhibitory activity against IL-1 beta converting enzyme was evaluated.

Test [4] is described as follows: Inhibitory activity against LPS-stimulated IL1-beta release by cultured human monocytes at a concentration 1000 nM. The class given is functional.

Structures are written as SMILES.

For `CC1=C(O)C(=O)C=C2C1=CC=C1[C@@]2(C)CC[C@@]2(C)[C@@H]3C[C@@H](C)C(=O)C[C@]3(C)CC[C@]12C` [TINGENONE], in test [1], half-maximal inhibition (IC50) required 58 nM. This counts as double-digit nanomolar. Same read-out and setting: the result for `COC(=O)[C@]1(C)CC[C@]2(C)CC[C@]3(C)C4=CCc5c(cc(O)c(O)c5C)[C@]4(C)CC[C@@]3(C)[C@@H]2C1` [PRISTIMEROL] reads 260 nM. In the case of `COc1ccc2c(c1)c(CC(=O)O)c(C)n2C(=O)c1ccc(Cl)cc1` [INDOMETHACIN], the SCW reduction in test [2] came to 70%. For `O=C1C=CC(=O)C=C1` [BENZOQUINONE], the IC50 – broadly, the concentration that inhibits the measured activity by half – in test [3] is 3000 nM.

In the case of `COC(=O)[C@]1(C)CC[C@]2(C)CC[C@]3(C)C4=CCc5c(cc(OC(C)=O)c(OC(C)=O)c5C)[C@]4(C)CC[C@@]3(C)[C@@H]2C1` [PRISTIMEROL DIACETATE], the IC50 in test [1] was 79 nM. Consider `COC(=O)[C@]1(C)CC[C@]2(C)CC[C@]3(C)C4=CCc5c(cc(OC)c(OC)c5C)[C@]4(C)CC[C@@]3(C)[C@@H]2C1`, for which, in test [4], the inhibition (as a rule, the change of the read-out against control, counted positive when it falls) at 1 µM came to 8%.

As for `COC(=O)[C@]1(C)CC[C@]2(C)CC[C@]3(C)C4=CC=C5C(=CC(=O)C(O)=C5C)[C@]4(C)CC[C@@]3(C)[C@@H]2C1` [PRISTIMERIN], the IC50 in test [1] was determined as 56 nM. On the same count and under the same terms, in the case of `CC1=C(O)C(=O)C=C2C1=CC=C1[C@@]2(C)CC[C@@]2(C)[C@@H]3C[C@](C)(C(=O)O)CC[C@]3(C)CC[C@]12C` [CELASTROL] it was 40 nM.
